Earlier results, collected in patent US6432422B1, “Creams containing vitamin D3 derivatives” (Chugai Seiyaku Kabushiki Kaisha, priority 1997, dated 2002).

What was measured:
[1] = organic solvents such as ethanol and chloroform

C=C1/C(=C\C=C2/CCC[C@]3(C)[C@@H]([C@H](C)OCCC(C)(C)O)CC[C@@H]23)C[C@@H](O)C[C@@H]1O [Maxacalcitol, 1α,3β-dihydroxy-20α-(3-hydroxy-3-methylbutyloxy)-9,10-seco-5,7,10(19)-pregnatriene]
effects on epidermal cells (epidermal cells): epidermal cell growth-inhibiting and differentiation-inducing effects | stability in aqueous solutions (aqueous solutions): unstable in aqueous solutions | stability in base materials (base materials such as petrolatum): very high stability | solubility in organic solvents [1]: highly soluble | stability in organic solvents [1]: dramatically improved stability | solubility in water (water): scarcely soluble in water
